Assay results taken from patent US20260364080A1, “PYRAZOLO-PYRIMIDINONE COMPOUNDS FOR USE IN METHODS OF INHIBITING WEE1 A KINASE” (Acrivon Therapeutics, Inc., priority 2023, published 2026).

Tests used:
[1] = molecular target: T1, Myt1 kinase (CDK1 Thr14 phosphorylation in ACHN renal cell carcinoma cells) (Homo sapiens, UniProt Q99640); experiment: AlphaLISA assay, Myt1 kinase target engagement (phospho-CDK1 Thr14) in ACHN cells; type: cell-based; settings: ACHN cells (marked *); 4 h treatment
T1 construct: pCDK1 Thr14 AlphaLISA read-out
T1 sequence (Q99640 1-499): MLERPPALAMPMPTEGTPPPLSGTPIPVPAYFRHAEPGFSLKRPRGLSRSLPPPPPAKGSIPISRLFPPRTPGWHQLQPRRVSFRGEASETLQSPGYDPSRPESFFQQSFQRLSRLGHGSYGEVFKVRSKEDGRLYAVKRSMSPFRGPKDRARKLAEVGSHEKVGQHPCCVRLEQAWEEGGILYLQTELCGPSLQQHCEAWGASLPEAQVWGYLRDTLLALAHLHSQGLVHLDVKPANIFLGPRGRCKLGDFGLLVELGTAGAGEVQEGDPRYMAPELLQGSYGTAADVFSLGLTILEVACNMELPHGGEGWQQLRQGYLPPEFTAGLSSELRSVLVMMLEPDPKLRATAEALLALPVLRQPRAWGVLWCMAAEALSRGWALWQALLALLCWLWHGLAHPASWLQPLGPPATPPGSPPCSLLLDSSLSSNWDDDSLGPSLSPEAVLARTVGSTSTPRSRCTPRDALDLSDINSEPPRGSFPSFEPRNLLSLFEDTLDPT
Method: Each of an ACHN renal cell carcinoma cell line (ATCC) and a DAOY medulloblastoma cell line, and an A427 lung cancer line were cultured in Minimum Essential Medium Eagle supplemented with 10% fetal calf serum (Sigma), 1% Penicillin-Streptomycin and 10 mM HEPES buffer (HyClone). Cell cultures were kept in a humidified incubator at 37 °C and 5% CO2. Cells were routinely tested for Mycoplasma contamination.
For target engagement assessment of Myt1 kinase inhibition, quantification of Cdk1 phosphorylated on threonine 14 was detected using the AlphaLISA® SureFire® Ultra™ Human Phospho-CDK1 (Thr14) assay (Perkin Elmer). DAOY or ACHN cells were seeded into tissue culture treated 96-well plates (VWR) to a density of 10,000 or 20,000 cells per well respectively. 24 h post seeding cells were treated for 4 h with compounds at concentrations ranging from 7 to 5000 nM. Cells were washed with PBS and lysed in 50 μl AlphaLISA lysis buffer before freezing at −80 C. Ten ul of the lysate was transferred to 384 well plates and incubated with AlphaLISA donor and acceptor beads according to the manufacturer's instructions. Dose response curves and EC50 values were calculated and visualized using GraphPad Prism version 9. Target engagement for Myt1 kinase can also be measured using the same AlphaLISA assay in OVCAR3 cells, an ovarian cancer cell line. NIH:OVCAR-3 (OVCAR3) cells are cultured in RPMI-1640 medium supplemented with 0.01 mg/ml insulin, 20% FBS, 1% Penicillin-Streptomycin and 10 mM HEPES buffer. 14,000 cells per well are seeded into 96 well tissue culture plates in full medium. Twenty-four hours post seeding, cells are treated with compound for 4 hours at concentrations ranging from 0.017 nM to 1000 nM.

ACHN cells = experiment: Cell Titer Glo viability assay, ACHN cells; type: cell-based; settings: Homo sapiens, 144 h, absolute EC50
Summary of the method: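 Cells grown in MEM with 10% FCS were seeded at 500 (A427), 400 (ACHN) or 250 (DAOY) per well and treated the next day with compound at 17 to 10 000 nM. Viability relative to untreated control was read at 144 h by CellTiter-Glo 2.0.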

[2] = molecular target: T2, Wee1A kinase (CDK1 Tyr15 phosphorylation in ACHN renal cell carcinoma cells) (Homo sapiens, UniProt P30291); experiment: High-content imaging of pCdk1 Y15, Wee1A kinase target engagement in ACHN cells; type: cell-based; settings: 4 h treatment, nuclear positivity for pCdk1 Y15 vs DMSO control, read-out: CDK1 Tyr15 Phosphorylation EC50
T2 construct: pCDK1 Tyr15 immunofluorescence read-out
Summary of the method: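 EC50 values come from the per-well fraction of cells with nuclear pCdk1 Y15 staining, normalised to DMSO control, by automated immunofluorescence imaging. Cells were ACHN renal carcinoma, treated 4 h with compound at 7–5,000 nM or 0.3–200 nM.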

[3] = molecular target: T3, Myt1 kinase (recombinant PMYT-1) (Homo sapiens, UniProt Q99640); experiment: Myt1 kinase binding assay (LanthaScreen Eu Kinase Binding Assay); settings: 3 nM tracer 178, 2.5 nM PMYT-1, 1 nM Eu-labeled antibody; read-out: Myt1 kinase Binding IC50
T3 construct: full length PMYT-1 was expressed by baculovirus in insect cells; purchased Invitrogen A30984; host or cells: insect cells (baculovirus)
T3 sequence (Q99640 1-499): T1 sequence (Q99640 1-499)
Summary of the method: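 Compound binding to Myt1 kinase was assessed using the LanthaScreen Eu Kinase Binding Assay. This europium-based binding format was applied to quantify how strongly each compound bound to the Myt1 enzyme, and the binding affinity was reported for each compound as an IC50 value.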

[4] = molecular target: T4, recombinant human Wee1A kinase (Homo sapiens, UniProt P30291); experiment: Wee1A kinase binding assay (LanthaScreen Eu time-resolved FRET); settings: 30 nM tracer 178, 5 nM Wee1A kinase, 2 nM Eu-labeled antibody; 60 minutes at room temperature; read-out: Wee1A kinase Binding IC50
T4 construct: full length Wee1 kinase was expressed by baculovirus in insect cells; purchased Invitrogen PV3817; host or cells: insect cells (baculovirus)
Summary of the method: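 Full-length, baculovirus-expressed GST-tagged Wee1A (5 nM) was mixed with 2 nM Eu-anti-GST antibody, 30 nM kinase tracer 178 and compound (1% DMSO). Buffer was 50 mM HEPES pH 7.5, 10 mM MgCl2, 1 mM EGTA, 0.01% Brij-35, incubated 60 min at room temperature. TR-FRET 665/615 nm emission ratios from duplicates were curve-fitted.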

T4 sequence (P30291 whole entry): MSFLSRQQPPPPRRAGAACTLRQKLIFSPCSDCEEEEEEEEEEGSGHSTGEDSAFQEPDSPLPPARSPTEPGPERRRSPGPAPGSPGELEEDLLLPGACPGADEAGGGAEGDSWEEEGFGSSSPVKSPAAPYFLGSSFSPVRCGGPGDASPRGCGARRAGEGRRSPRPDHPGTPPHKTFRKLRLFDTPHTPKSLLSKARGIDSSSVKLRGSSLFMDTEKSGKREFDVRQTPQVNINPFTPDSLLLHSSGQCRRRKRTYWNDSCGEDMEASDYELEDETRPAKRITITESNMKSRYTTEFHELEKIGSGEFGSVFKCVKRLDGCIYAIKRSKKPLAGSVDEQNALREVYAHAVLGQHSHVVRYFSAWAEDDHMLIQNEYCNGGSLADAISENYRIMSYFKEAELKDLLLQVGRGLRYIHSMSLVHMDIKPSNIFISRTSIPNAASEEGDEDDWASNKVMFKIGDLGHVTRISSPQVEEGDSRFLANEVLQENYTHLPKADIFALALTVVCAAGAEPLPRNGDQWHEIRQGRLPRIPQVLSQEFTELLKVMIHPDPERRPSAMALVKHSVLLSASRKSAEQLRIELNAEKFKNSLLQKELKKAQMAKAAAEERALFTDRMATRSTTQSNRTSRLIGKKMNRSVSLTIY
T2 sequence (P30291 whole entry): as above

| SMILES | EC50 [1] | EC50 (ACHN cells) | EC50 [2] | IC50 [3] | IC50 [4] |
| --- | --- | --- | --- | --- | --- |
| C=CCn1c(=O)c2cnc(Nc3ccc4c(cnn4CC)c3)nc2n1-c1cccc(OC2CCNCC2)n1 [Compound 280, 2-allyl-6-((1-ethyl-1H-indazol-5-yl)amino)-1-(6-(piperidin-4-yloxy)pyridin-2-yl)-1,2-dihydro-3H-pyrazolo[3,4-d]pyrimidin-3-one] | 200 to 500 nM | ≤ 100 nM | < 100 nM | < 20 nM | < 10 nM |
| C=CCn1c(=O)c2cnc(Nc3ccc4c(cnn4CCCF)c3)nc2n1-c1cccc(OC2CCN(C)CC2)n1 [Compound 387, 2-allyl-6-((1-(3-fluoropropyl)-1H-indazol-5-yl)amino)-1-(6-((1-methylpiperidin-4-yl)oxy)pyridin-2-yl)-1,2-dihydro-3H-pyrazolo[3,4-d]pyrimidin-3-one] | < 200 nM | ≤ 100 nM | < 100 nM | 20 to 100 nM | < 10 nM |
| [2H]C([2H])([2H])N1CCC(Oc2cccc(-n3c4nc(Nc5ccc6c(cnn6C)c5)ncc4c(=O)n3CC=C)n2)CC1 [Compound 281, 2-allyl-6-((1-methyl-1H-indazol-5-yl)amino)-1-(6-((1-(methyl-d3)piperidin-4-yl)oxy)pyridin-2-yl)-1,2-dihydro-3H-pyrazolo[3,4-d]pyrimidin-3-one] | < 200 nM | ≤ 100 nM | < 100 nM | 20 to 100 nM | < 10 nM |
| C=CCn1c(=O)c2cnc(Nc3ccc4c(cnn4C4CC4)c3)nc2n1-c1cccc(OC2CCN(C)CC2)n1 [Compound 386, 2-allyl-6-((1-cyclopropyl-1H-indazol-5-yl)amino)-1-(6-((1-methylpiperidin-4-yl)oxy)pyridin-2-yl)-1,2-dihydro-3H-pyrazolo[3,4-d]pyrimidin-3-one] | < 200 nM | ≤ 100 nM | < 100 nM | < 20 nM | < 10 nM |
| C=CCn1c(=O)c2cnc(Nc3ccc4c(cnn4C)c3)nc2n1-c1cccc(OC2CCN(CCC)CC2)n1 [Compound 322, 2-allyl-6-(1-methyl-1H-indazol-5-ylamino)-1-[6-(1-propyl-4-piperidyloxy)-2-pyridyl]-1,2-dihydro-3H-1,2,5,7-tetraazainden-3-one] | 200 to 500 nM | ≤ 100 nM | < 100 nM | 20 to 100 nM | < 10 nM |
| C=CCn1c(=O)c2cnc(Nc3ccc4c(ccn4C(C)=O)c3)nc2n1-c1cccc(OC2CCNCC2)n1 [Compound 384] | > 1000 nM | ≤ 100 nM | < 100 nM | 20 to 100 nM | < 10 nM |
| C=CCn1c(=O)c2cnc(Nc3ccc4nn(CC)cc4c3)nc2n1-c1cccc(OC2CCN(C)CC2)n1 [Compound 282, 2-allyl-6-((2-ethyl-2H-indazol-5-yl)amino)-1-(6-((1-methylpiperidin-4-yl)oxy)pyridin-2-yl)-1,2-dihydro-3H-pyrazolo[3,4-d]pyrimidin-3-one] | < 200 nM | ≤ 100 nM | < 100 nM | < 20 nM | < 10 nM |
| C=CCn1c(=O)c2cnc(Nc3ccc4c(cnn4C)c3)nc2n1-c1cccc(O[C@@H]2CCN(C)[C@@H](C)C2)n1 (stereo in doubt) [Compound 403, rel-2-allyl-1-(6-(((2R,4S)-1,2-dimethylpiperidin-4-yl)oxy)pyridin-2-yl)-6-((1-methyl-1H-indazol-5-yl)amino)-1,2-dihydro-3H-pyrazolo[3,4-d]pyrimidin-3-one] | < 200 nM | ≤ 100 nM | < 100 nM | 20 to 100 nM | < 10 nM |
| C=CCn1c(=O)c2cnc(Nc3ccc4cn(C)nc4c3)nc2n1-c1cccc(OC2CCN(C)CC2)n1 [Compound 398, 2-allyl-6-((2-methyl-2H-indazol-6-yl)amino)-1-(6-((1-methylpiperidin-4-yl)oxy)pyridin-2-yl)-1,2-dihydro-3H-pyrazolo[3,4-d]pyrimidin-3-one] | 200 to 500 nM | ≤ 100 nM | < 100 nM | 20 to 100 nM | < 10 nM |
| C=CCn1c(=O)c2cnc(Nc3ccc4c(cnn4C)c3)nc2n1-c1cccc(NC2CCN(C)CC2)n1 [Compound 129, 6-[(1-methyl-1H-indazol-5-yl)amino]-1-{6-[(1-methylpiperidin-4-yl)amino]pyridin-2-yl}-2-(prop-2-en-1-yl)-1H,2H,3H-pyrazolo[3,4-d]pyrimidin-3-one] | > 1000 nM | ≤ 100 nM | < 100 nM | 100 to 500 nM | < 10 nM |
| C=CCn1c(=O)c2cnc(Nc3ccc4c(cnn4CC(C)C)c3)nc2n1-c1cccc(OC2CCN(C)CC2)n1 [Compound 394, 2-allyl-6-((1-isobutyl-1H-indazol-5-yl)amino)-1-(6-((1-methylpiperidin-4-yl)oxy)pyridin-2-yl)-1,2-dihydro-3H-pyrazolo[3,4-d]pyrimidin-3-one] | < 200 nM | ≤ 100 nM | < 100 nM | < 20 nM | < 10 nM |
| C=CCn1c(=O)c2cnc(Nc3ccc(F)c(C)c3)nc2n1-c1cccc(OC2CCN(C)CC2)n1 [Compound 206, 6-[(4-fluoro-3-methylphenyl)amino]-1-{6-[(1-methylpiperidin-4-yl)oxy]pyridin-2-yl}-2-(prop-2-en-1-yl)-1H,2H,3H-pyrazolo[3,4-d]pyrimidin-3-one] | 200 to 500 nM | ≤ 100 nM | < 100 nM | 20 to 100 nM | < 10 nM |
| C=CCn1c(=O)c2cnc(Nc3ccc(OCCF)cc3)nc2n1-c1ccnc(OC2CCN(C)CC2)n1 [Compound 388, 2-allyl-6-((4-(2-fluoroethoxy)phenyl)amino)-1-(2-((1-methylpiperidin-4-yl)oxy)pyrimidin-4-yl)-1,2-dihydro-3H-pyrazolo[3,4-d]pyrimidin-3-one] | < 200 nM | ≤ 100 nM | < 100 nM | 20 to 100 nM | < 10 nM |
| C=CCn1c(=O)c2cnc(Nc3ccc4c(cnn4C)c3)nc2n1-c1cccc(OC2CCCN(C)CC2)n1 (single isomer, unassigned) [Compound 373] | 200 to 500 nM | ≤ 100 nM | < 100 nM | < 20 nM | < 10 nM |
| C=CCn1c(=O)c2cnc(Nc3ccc(N4CCOCC4)cc3)nc2n1-c1cccc(OC2CCN(C)CC2)n1 [Compound 278, 2-allyl-1-(6-((1-methylpiperidin-4-yl)oxy)pyridin-2-yl)-6-((4-morpholinophenyl)amino)-1,2-dihydro-3H-pyrazolo[3,4-d]pyrimidin-3-one] | < 200 nM | ≤ 100 nM | < 100 nM | 20 to 100 nM | < 10 nM |
